What all share (assay): two-electrode voltage clamp, Xenopus oocytes
What all share (format): cell-based

One assay has as its target T1, CmedOR32/ORco (Cnaphalocrocis medinalis, UniProt A0A1B2G2M9).
T1 construct: full ORF cloned in pT7Ts; cRNA co-injected with CmedORco in Xenopus oocytes; with Odorant receptor coreceptor
T1 sequence (A0A1B2G2M9 1-389): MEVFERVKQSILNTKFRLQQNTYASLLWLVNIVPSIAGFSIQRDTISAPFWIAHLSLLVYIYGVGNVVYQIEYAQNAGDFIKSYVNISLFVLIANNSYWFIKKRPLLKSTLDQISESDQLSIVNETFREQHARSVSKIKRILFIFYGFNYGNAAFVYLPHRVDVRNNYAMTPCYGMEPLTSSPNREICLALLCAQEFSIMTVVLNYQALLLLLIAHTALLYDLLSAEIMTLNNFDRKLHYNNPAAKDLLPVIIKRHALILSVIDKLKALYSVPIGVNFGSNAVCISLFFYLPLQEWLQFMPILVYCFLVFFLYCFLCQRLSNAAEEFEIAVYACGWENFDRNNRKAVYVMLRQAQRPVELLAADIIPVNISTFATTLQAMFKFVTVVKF
T1 sequence (H9XFD5 1-473 partner): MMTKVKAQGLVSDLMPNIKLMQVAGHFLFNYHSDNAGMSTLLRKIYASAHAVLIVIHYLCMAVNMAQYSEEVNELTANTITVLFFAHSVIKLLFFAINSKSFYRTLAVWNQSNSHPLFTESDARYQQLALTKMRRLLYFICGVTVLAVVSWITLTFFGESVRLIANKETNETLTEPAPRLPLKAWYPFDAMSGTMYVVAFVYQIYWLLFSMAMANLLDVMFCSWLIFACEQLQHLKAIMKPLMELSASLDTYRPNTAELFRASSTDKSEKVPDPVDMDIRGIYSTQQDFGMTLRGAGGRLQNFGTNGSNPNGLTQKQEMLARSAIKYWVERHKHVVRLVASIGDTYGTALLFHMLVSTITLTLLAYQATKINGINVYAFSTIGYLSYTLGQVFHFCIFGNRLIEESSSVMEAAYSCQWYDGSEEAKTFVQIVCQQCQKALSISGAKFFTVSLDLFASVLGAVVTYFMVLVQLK
The settings on record: agonist; with CmedORco; -80 mV; pH 7.5; 15 s stimulus; concentration contradictory (text 0.1 μM, figure legend 10^-4 M).

In another assay the target is T2, CmedOR31/ORco (Cnaphalocrocis medinalis, UniProt A0A1B2G2M5).
T2 construct: full ORF cloned in pT7Ts; cRNA co-injected with CmedORco in Xenopus oocytes; with Odorant receptor coreceptor
T2 sequence (A0A1B2G2M5 1-408): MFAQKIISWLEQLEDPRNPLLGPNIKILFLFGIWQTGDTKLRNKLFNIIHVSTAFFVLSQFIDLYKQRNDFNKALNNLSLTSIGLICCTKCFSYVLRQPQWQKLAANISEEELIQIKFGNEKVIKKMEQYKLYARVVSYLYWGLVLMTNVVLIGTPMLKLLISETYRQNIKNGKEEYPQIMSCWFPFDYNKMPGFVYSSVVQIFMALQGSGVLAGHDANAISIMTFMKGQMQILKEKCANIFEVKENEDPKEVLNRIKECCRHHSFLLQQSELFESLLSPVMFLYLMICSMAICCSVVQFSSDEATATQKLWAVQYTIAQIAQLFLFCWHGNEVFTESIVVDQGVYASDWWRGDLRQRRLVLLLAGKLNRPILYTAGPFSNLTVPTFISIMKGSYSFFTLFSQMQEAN
T2 sequence (H9XFD5 1-473 partner): T1 sequence (H9XFD5 1-473 partner)
Particulars: agonist; with CmedORco; -80 mV; pH 7.5; 15 s stimulus; concentration contradictory (text 0.1 μM, figure legend 10^-4 M).

In assay [1] the target is T3, CmedOR1/ORco (Cnaphalocrocis medinalis, UniProt A0A0U3A934).
T3 construct: gene or1; full ORF cloned in pT7Ts; cRNA co-injected with CmedORco in Xenopus oocytes; with Odorant receptor coreceptor
T3 sequence (A0A0U3A934 1-448): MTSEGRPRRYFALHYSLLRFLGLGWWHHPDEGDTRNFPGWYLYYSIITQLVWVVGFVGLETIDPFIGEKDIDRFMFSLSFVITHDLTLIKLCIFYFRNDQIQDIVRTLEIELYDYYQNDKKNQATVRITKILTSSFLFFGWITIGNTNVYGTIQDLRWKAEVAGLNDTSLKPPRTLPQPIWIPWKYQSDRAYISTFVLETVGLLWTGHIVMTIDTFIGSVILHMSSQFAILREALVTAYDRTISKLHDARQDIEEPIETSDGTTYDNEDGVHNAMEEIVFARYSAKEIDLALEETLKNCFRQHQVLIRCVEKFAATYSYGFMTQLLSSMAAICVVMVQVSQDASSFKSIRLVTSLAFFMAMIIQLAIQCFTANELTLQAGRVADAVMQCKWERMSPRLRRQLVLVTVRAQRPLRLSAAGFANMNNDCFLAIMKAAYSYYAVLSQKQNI
T3 sequence (H9XFD5 1-473 partner): T1 sequence (H9XFD5 1-473 partner)
Particulars: agonist, with CmedORco, -80 mV, pH 7.5, 15 s stimulus, concentration contradictory (text 0.1 μM, figure legend 10^-4 M).

Assay [2] has as its target T3, CmedOR1/ORco. The settings on record: agonist; with CmedORco; -80 mV; pH 7.5; 15 s stimulus; 10^-4 M (b31 also prints 0.1 μM).

Consider `CCC/C=C/C=O` [E2-hexenal], for which, at CmedOR32/ORco, the inward current entry is “plant foliar odorants cis-3-hexenyl acetate, E2-hexenal, and β-caryophyllene”. In the case of `CCCC(=O)OCC` [Ethyl butyrate], the inward current entry at CmedOR32/ORco is “floral volatile compounds methyl 2-methoxybenzoate, β-myrcene, and ethyl butyrate”. For the compound `CC(C)=CCC/C(C)=C/CO` [Geraniol], the inward current at CmedOR31/ORco amounted to 128 ± 16 nA. Take `C=CC(C)(O)CCC=C(C)C` (stereo not shown) [Linalool]: the inward current at CmedOR1/ORco [1] is listed as 64 ± 5 nA. `COC(=O)c1ccccc1OC` [Methyl 2-methoxybenzoate]: the inward current entry on CmedOR32/ORco is “floral volatile compounds methyl 2-methoxybenzoate, β-myrcene, and ethyl butyrate”. In the case of `OCCc1ccccc1` [Phenethyl alcohol], the inward current on CmedOR1/ORco [1] (printed as two isomers, phenethyl alcohol and 2-phenethyl alcohol) was found to be 130 ± 10 nA. On to `O=CCc1ccccc1` [Phenylacetaldehyde], for which the “inward current at 10^-4 M” value at CmedOR1/ORco [2] amounted to 3200 ± 86 nA.

Take `CC/C=C\CCOC(C)=O` [cis-3-Hexenyl acetate]: the inward current result at CmedOR32/ORco was “CmedOR32 showed nonspecific responses to plant foliar odorants cis-3-hexenyl acetate”. The same measure, in the same setting: the same measure for `C=C1CC/C=C(\C)CC[C@@H]2[C@@H]1CC2(C)C` [β-Caryophyllene]: “plant foliar odorants cis-3-hexenyl acetate, E2-hexenal, and β-caryophyllene”; for `C=CC(=C)CCC=C(C)C` [β-Myrcene]: “floral volatile compounds methyl 2-methoxybenzoate, β-myrcene, and ethyl butyrate”.

(Values after PMC10744336, “Functional Identification of Olfactory Receptors of Cnaphalocrocis medinalis (Lepidoptera: Crambidae) for Plant Odor” (Insects, 2023).)
